Reference: patent publication US9486546B2, “Methods and compositions for radiohalogen protein labeling” (Genentech, Inc., priority 2012, dated 2016)

Assay: Water solubility of labeling precursor
Format: physicochemical
Conditions: aqueous 0.1% acetic acid
From the text: The radiochemical strategy shown on FIG. 3 uses the mild, water soluble oxidant, N-chlorosuccinimide, to achieve iodination on the hydroxyphenyl group of 4. […] Even though much greater radiochemical yield was possible by increasing the ratio of 4 to Na^125I, the highest possible specific activity of the radiolabeled intermediate 5 and higher conjugation yields was facilitated by avoiding saturation of available reduced thiols. The intermediate 5 was easily purified from free iodide and oxidant using reverse-phase solid-phase extraction cartridges. Acid deprotection yielded the triacid 6, with completeness of reaction monitored by reverse-phase radio-HPLC (FIG. 3). This 4-hydroxy-3-iodophenyl derivative of DOTA, 6, was designated [^125I] HIP-DOTA. After exhaustive removal of acid by repeated evaporation of toluene, the thiol-containing antibody could be introduced for thiol-maleimide coupling. Remaining free thiols in the radioimmunoconjugate were capped with iodoacetic acid to avoid dimerization or formation of adducts with thiol containing plasma or endogenous proteins. All radioimmunoconjugates were analyzed for purity by size-exclusion HPLC and compared to the profile of unlabeled antibodies, such as trastuzumab.

Water solubility: sufficiently water soluble
Structure (SMILES): CC(C)(C)OC(=O)CN1CCN(CC(=O)NCCN(CC(=O)NCC(=O)NCCN2C(=O)C=CC2=O)C(=O)Cc2ccc(O)cc2)CCN(CC(=O)OC(C)(C)C)CCN(CC(=O)OC(C)(C)C)CC1 [compound 4, tri-tert-butyl 2,2′,2″-(10-(14-(2,5-dioxo-2,5-dihydro-1H-pyrrol-1-yl)-6-(2-(4-hydroxyphenyl)acetyl)-2,8,11-trioxo-3,6,9,12-tetraazatetradecyl)-1,4,7,10-tetraazacyclododecane-1,4,7-triyl)triacetate]
